Earlier results in patent publication US9532983B2, “Benzofuran compounds, compositions, kits and/or methods thereof” (Savannah State University, priority 2013, dated 2017).

Molecular target: σ1 receptor (Homo sapiens, UniProt Q99720)
Details: read-out: affinity for the σ1 receptor; Maurice et al.; cited from earlier work

σ1 receptor, sequence (Q99720 whole entry, species assumed): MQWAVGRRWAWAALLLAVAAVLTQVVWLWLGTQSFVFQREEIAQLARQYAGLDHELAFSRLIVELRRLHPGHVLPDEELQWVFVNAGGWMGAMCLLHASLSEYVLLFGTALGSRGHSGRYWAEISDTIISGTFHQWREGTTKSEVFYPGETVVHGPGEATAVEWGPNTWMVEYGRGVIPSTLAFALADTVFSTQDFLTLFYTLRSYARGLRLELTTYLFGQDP

Cc1ccc2c(c1)[C@]13CCCC[C@@H]1[C@H](C2)N(C)CC3 [dimemorfan]
Ki: 151 nM
